The results in this text go back to US12539292B2, “BRM targeting compounds and associated methods of use” (Arvinas Operations, Inc., priority 2018, dated 2026).

This test deals with T1, BRM (Homo sapiens, UniProt P51531).
T1 construct: In-Cell Western Screen of BRM Degradation in SW1573 Cells; endogenous in cells; host or cells: SW1573
Briefly: In-cell Western screen of BRM degradation in SW1573 cells (Dmax and DC50). Type of test: cell-based. The note with it: BRM degradation, SW1573 cells; for Dmax: read-out: Dmax (% degraded). The method in brief:
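SW1573, overnight cpd exposure (18-20 h), 0.1% DMSO final. PFA fix, 0.5% Triton permeabilization, block; IR secondaries at 800/680 nm. Odyssey read → Dmax, DC50.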

Read-outs that look alike come from different tables or passages of the source.

T1 sequence (P51531 whole entry): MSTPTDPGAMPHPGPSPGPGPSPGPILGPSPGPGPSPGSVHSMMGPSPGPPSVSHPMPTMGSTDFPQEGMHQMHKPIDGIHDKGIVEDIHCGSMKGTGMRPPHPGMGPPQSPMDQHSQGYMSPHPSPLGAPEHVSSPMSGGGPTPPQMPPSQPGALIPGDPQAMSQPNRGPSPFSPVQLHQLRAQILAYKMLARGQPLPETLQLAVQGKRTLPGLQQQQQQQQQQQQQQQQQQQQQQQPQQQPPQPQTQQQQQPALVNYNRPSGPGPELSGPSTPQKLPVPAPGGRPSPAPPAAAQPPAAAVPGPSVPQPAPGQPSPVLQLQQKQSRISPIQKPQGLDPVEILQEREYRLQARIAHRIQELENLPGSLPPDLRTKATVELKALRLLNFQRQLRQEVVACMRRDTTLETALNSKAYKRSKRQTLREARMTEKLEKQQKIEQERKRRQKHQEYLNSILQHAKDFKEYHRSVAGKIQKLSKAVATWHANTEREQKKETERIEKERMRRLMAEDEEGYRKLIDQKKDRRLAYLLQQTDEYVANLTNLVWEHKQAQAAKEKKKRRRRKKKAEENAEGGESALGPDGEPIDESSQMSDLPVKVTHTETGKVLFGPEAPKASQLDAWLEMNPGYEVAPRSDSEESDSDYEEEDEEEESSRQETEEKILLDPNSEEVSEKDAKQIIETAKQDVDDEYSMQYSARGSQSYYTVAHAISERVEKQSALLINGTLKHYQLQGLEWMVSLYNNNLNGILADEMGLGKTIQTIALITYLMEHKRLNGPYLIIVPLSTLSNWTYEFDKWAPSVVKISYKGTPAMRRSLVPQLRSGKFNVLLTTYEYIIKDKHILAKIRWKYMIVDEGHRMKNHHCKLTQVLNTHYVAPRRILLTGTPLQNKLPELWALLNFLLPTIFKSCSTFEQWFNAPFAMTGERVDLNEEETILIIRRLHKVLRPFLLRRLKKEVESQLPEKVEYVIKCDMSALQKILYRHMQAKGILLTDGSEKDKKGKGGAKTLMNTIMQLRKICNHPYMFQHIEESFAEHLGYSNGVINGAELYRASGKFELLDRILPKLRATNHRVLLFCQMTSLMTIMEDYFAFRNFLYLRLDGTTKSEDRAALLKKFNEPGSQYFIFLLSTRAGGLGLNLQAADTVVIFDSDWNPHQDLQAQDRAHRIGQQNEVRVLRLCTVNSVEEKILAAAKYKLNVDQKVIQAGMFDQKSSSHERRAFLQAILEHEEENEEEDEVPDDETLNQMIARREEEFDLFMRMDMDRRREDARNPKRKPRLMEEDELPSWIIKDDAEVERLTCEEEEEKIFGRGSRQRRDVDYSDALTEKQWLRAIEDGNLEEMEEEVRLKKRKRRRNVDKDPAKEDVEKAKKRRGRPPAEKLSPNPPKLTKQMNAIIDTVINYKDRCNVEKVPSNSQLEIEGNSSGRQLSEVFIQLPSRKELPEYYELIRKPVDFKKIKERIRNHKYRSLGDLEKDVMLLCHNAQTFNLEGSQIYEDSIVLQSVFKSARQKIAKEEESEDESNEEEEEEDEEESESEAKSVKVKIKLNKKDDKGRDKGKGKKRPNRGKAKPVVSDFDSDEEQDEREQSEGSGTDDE

In the case of `Cc1ncsc1-c1ccc(C(CCCP(=O)(O)O)NC(=O)[C@@H]2C[C@@H](O)CN2C(=O)[C@H](c2cc(OCCN3CCC(O[C@H]4C[C@H](Oc5cc(N6C7CCC6CN(c6cc(-c8ccccc8O)nnc6N)C7)ccn5)C4)CC3)no2)C(C)C)cc1` (stereo partly drawn) [compound 701, (4-((2S,4R)-1-((2S)-2-(3-(2-(4-((1r,3S)-3-((4-(3-(3-amino-6-(2-hydroxyphenyl)pyridazin-4-yl)-3,8-diazabicyclo[3.2.1]octan-8-yl)pyridin-2-yl)oxy)cyclobutoxy)piperidin-1-yl)ethoxy)isoxazol-5-yl)-3-methylbutanoyl)-4-hydroxypyrrolidine-2-carboxamido)-4-(4-(4-methylthiazol-5-yl)phenyl)butyl)phosphonic acid], the DC50 – broadly, the concentration at which degradation of the target reaches its halfway point – is more than 30 nM.

In turn, `Cc1ncsc1-c1ccc(C(CCCP(=O)(O)O)NC(=O)[C@@H]2C[C@@H](O)CN2C(=O)[C@@H](c2cc(OCCN3CCC(O[C@H]4C[C@H](Oc5cc(N6C7CCC6CN(c6cc(-c8ccccc8O)nnc6N)C7)ccn5)C4)CC3)no2)C(C)C)cc1` (stereo partly drawn) [compound 702, (4-((2S,4R)-1-((2R)-2-(3-(2-(4-((1r,3R)-3-((4-(3-(3-amino-6-(2-hydroxyphenyl)pyridazin-4-yl)-3,8-diazabicyclo[3.2.1]octan-8-yl)pyridin-2-yl)oxy)cyclobutoxy)piperidin-1-yl)ethoxy)isoxazol-5-yl)-3-methylbutanoyl)-4-hydroxypyrrolidine-2-carboxamido)-4-(4-(4-methylthiazol-5-yl)phenyl)butyl)phosphonic acid] displayed a DC50 of more than 30 nM.

For the compound `Cc1ncsc1-c1ccc([C@H](C)NC(=O)[C@@H]2C[C@@H](O)CN2C(=O)[C@H](c2cc(N3CCN(C(C)[C@H]4C[C@H](Oc5cc(N6C7CCC6CN(c6cc(-c8ccccc8O)nnc6N)C7)ccn5)C4)CC3)no2)C(C)C)cc1` (stereo partly drawn) [compound 703, (2S,4R)-1-((2S)-2-(3-(4-((1S)-1-((1r,3S)-3-((4-(3-(3-amino-6-(2-hydroxyphenyl)pyridazin-4-yl)-3,8-diazabicyclo[3.2.1]octan-8-yl)pyridin-2-yl)oxy)cyclobutyl)ethyl)piperazin-1-yl)isoxazol-5-yl)-3-methylbutanoyl)-4-hydroxy-N-((S)-1-(4-(4-methylthiazol-5-yl)phenyl)ethyl)pyrrolidine-2-carboxamide], the Dmax (commonly the greatest extent of degradation seen) is more than 75%. Further, the half-maximal degradation concentration (DC50) (read-out: DC50) lay within 2.5 to 10 nM.

Regarding `Cc1ncsc1-c1ccc([C@H](C)NC(=O)[C@@H]2C[C@@H](O)CN2C(=O)[C@@H](c2cc(N3CCN(C(C)[C@H]4C[C@H](Oc5cc(N6C7CCC6CN(c6cc(-c8ccccc8O)nnc6N)C7)ccn5)C4)CC3)no2)C(C)C)cc1` (stereo partly drawn) [compound 704, (2S,4R)-1-((2R)-2-(3-(4-((1S)-1-((1r,3S)-3-((4-(3-(3-amino-6-(2-hydroxyphenyl)pyridazin-4-yl)-3,8-diazabicyclo[3.2.1]octan-8-yl)pyridin-2-yl)oxy)cyclobutyl)ethyl)piperazin-1-yl)isoxazol-5-yl)-3-methylbutanoyl)-4-hydroxy-N-((S)-1-(4-(4-methylthiazol-5-yl)phenyl)ethyl)pyrrolidine-2-carboxamide], the Dmax was more than 75%. Where the note is “read-out: DC50”, the DC50 is less than 2.5 nM.

In the case of `Cc1ncsc1-c1ccc([C@H](C)NC(=O)[C@@H]2C[C@@H](O)CN2C(=O)[C@@H](c2cc(N3CCC(CN4CCN(C[C@H]5C[C@H](Oc6cc(N7C8CCC7CN(c7cc(-c9ccccc9O)nnc7N)C8)ccn6)C5)C(C)C4C)CC3)no2)C(C)C)cc1` (stereo partly drawn) [compound 705, (2S,4R)-1-((2R)-2-(3-(4-((4-(((1r,3r)-3-((4-(3-(3-amino-6-(2-hydroxyphenyl)pyridazin-4-yl)-3,8-diazabicyclo[3.2.1]octan-8-yl)pyridin-2-yl)oxy)cyclobutyl)methyl)-2,3-dimethylpiperazin-1-yl)methyl)piperidin-1-yl)isoxazol-5-yl)-3-methylbutanoyl)-4-hydroxy-N-((S)-1-(4-(4-methylthiazol-5-yl)phenyl)ethyl)pyrrolidine-2-carboxamide], the Dmax was more than 75%. Also, the DC50 (read-out: DC50) is less than 2.5 nM.

For the compound `Cc1ncsc1-c1ccc([C@H](C)NC(=O)[C@@H]2C[C@@H](O)CN2C(=O)[C@@H](c2cc(N3CCC(CN4CCC(O[C@H]5C[C@H](C#CC(C)N6CCOC7(CCN(c8cc(-c9ccccc9O)nnc8N)CC7)C6)C5)CC4)CC3)no2)C(C)C)cc1` (stereo partly drawn) [compound 707, (2S,4R)-1-((2R)-2-(3-(4-((4-((1r,3r)-3-(3-(9-(3-amino-6-(2-hydroxyphenyl)pyridazin-4-yl)-1-oxa-4,9-diazaspiro[5.5]undecan-4-yl)but-1-yn-1-yl)cyclobutoxy)piperidin-1-yl)methyl)piperidin-1-yl)isoxazol-5-yl)-3-methylbutanoyl)-4-hydroxy-N-((S)-1-(4-(4-methylthiazol-5-yl)phenyl)ethyl)pyrrolidine-2-carboxamide], the Dmax was more than 75%. Further, the DC50 (read-out: DC50) was less than 2.5 nM.

In the case of `Cc1ncsc1-c1ccc([C@H](C)NC(=O)[C@@H]2C[C@@H](O)CN2C(=O)[C@@H](c2cc(N3CCC(CN4CCC(O[C@H]5C[C@H](Oc6cc(N7C8CCC7CN(c7cc(-c9ccccc9O)nnc7N)C8)ccn6)C5)CC4)CC3)no2)C(C)C)c(N)c1` [compound 708, (2S,4R)-N-((S)-1-(2-amino-4-(4-methylthiazol-5-yl)phenyl)ethyl)-1-((2R)-2-(3-(4-((4-((1r,3r)-3-((4-(3-(3-amino-6-(2-hydroxyphenyl)pyridazin-4-yl)-3,8-diazabicyclo[3.2.1]octan-8-yl)pyridin-2-yl)oxy)cyclobutoxy)piperidin-1-yl)methyl)piperidin-1-yl)isoxazol-5-yl)-3-methylbutanoyl)-4-hydroxypyrrolidine-2-carboxamide], the Dmax was more than 75%. The DC50 (read-out: DC50) is less than 2.5 nM.

Consider `CC(C)[C@@H](C(=O)N1C[C@H](O)C[C@H]1C(=O)N[C@@H](C)c1ccc(C2(F)CC2)cc1)c1cc(N2CCC(CN3CCC(O[C@H]4C[C@H](Oc5cc(N6C7CCC6CN(c6cc(-c8ccccc8O)nnc6N)C7)ccn5)C4)CC3)CC2)no1` [compound 713, (2S,4R)-1-((2R)-2-(3-(4-((4-((1r,3r)-3-((4-(3-(3-amino-6-(2-hydroxyphenyl)pyridazin-4-yl)-3,8-diazabicyclo[3.2.1]octan-8-yl)pyridin-2-yl)oxy)cyclobutoxy)piperidin-1-yl)methyl)piperidin-1-yl)isoxazol-5-yl)-3-methylbutanoyl)-N-((S)-1-(4-(1-fluorocyclopropyl)phenyl)ethyl)-4-hydroxypyrrolidine-2-carboxamide], for which the Dmax is more than 75%. Further, the DC50 (read-out: DC50) lay within 2.5 to 10 nM.

Turning to `Cc1ncsc1-c1ccc([C@H](C)NC(=O)[C@@H]2C[C@@H](O)CN2C(=O)[C@H](c2cc(N3CCN(C(C)(C)C4CCN(C[C@H]5C[C@H](Oc6cc(N7C8CCC7CN(c7cc(-c9ccccc9O)nnc7N)C8)ccn6)C5)CC4)CC3)no2)C(C)C)cc1` [compound 714, (2S,4R)-1-((2S)-2-(3-(4-(2-(1-(((1r,3r)-3-((4-(3-(3-amino-6-(2-hydroxyphenyl)pyridazin-4-yl)-3,8-diazabicyclo[3.2.1]octan-8-yl)pyridin-2-yl)oxy)cyclobutyl)methyl)piperidin-4-yl)propan-2-yl)piperazin-1-yl)isoxazol-5-yl)-3-methylbutanoyl)-4-hydroxy-N-((S)-1-(4-(4-methylthiazol-5-yl)phenyl)ethyl) pyrrolidine-2-carboxamide], where the note is “read-out: DC50”, the DC50 is more than 30 nM.

Consider `Cc1ncsc1-c1ccc([C@H](C)NC(=O)[C@@H]2C[C@@H](O)CN2C(=O)[C@@H](c2cc(N3CCN(C(C)(C)C4CCN(C[C@H]5C[C@H](Oc6cc(N7C8CCC7CN(c7cc(-c9ccccc9O)nnc7N)C8)ccn6)C5)CC4)CC3)no2)C(C)C)cc1` [compound 715, (2S,4R)-1-((2R)-2-(3-(4-(2-(1-(((1r,3r)-3-((4-(3-(3-amino-6-(2-hydroxyphenyl)pyridazin-4-yl)-3,8-diazabicyclo[3.2.1]octan-8-yl)pyridin-2-yl)oxy)cyclobutyl)methyl)piperidin-4-yl)propan-2-yl)piperazin-1-yl)isoxazol-5-yl)-3-methylbutanoyl)-4-hydroxy-N-((S)-1-(4-(4-methylthiazol-5-yl)phenyl)ethyl)pyrrolidine-2-carboxamide], for which the Dmax is more than 75%. For the same compound, the DC50 (read-out: DC50) was less than 2.5 nM.

Turning to `Cc1ncsc1-c1ccc([C@H](C)NC(=O)[C@@H]2C[C@@H](O)CN2C(=O)[C@@H](c2cc(N3CCC(CN4CCC(O[C@H]5C[C@H](Oc6cc(N7CCOC8(CCN(c9cc(-c%10ccccc%10O)nnc9N)CC8)C7)ccn6)C5)CC4)CC3)no2)C(C)C)cc1` [compound 716, (2S,4R)-1-((R)-2-(3-(4-((4-((1r,3r)-3-((4-(9-(3-amino-6-(2-hydroxyphenyl)pyridazin-4-yl)-1-oxa-4,9-diazaspiro[5.5]undecan-4-yl)pyridin-2-yl)oxy)cyclobutoxy)piperidin-1-yl)methyl)piperidin-1-yl)isoxazol-5-yl)-3-methylbutanoyl)-4-hydroxy-N-((S)-1-(4-(4-methylthiazol-5-yl)phenyl)ethyl)pyrrolidine-2-carboxamide], the Dmax is more than 75%. Further, under “read-out: DC50”, the DC50 is less than 2.5 nM.

For the compound “(2S,4R)-1-((2R)-2-(3-(2-(4-((1r,3R)- 3-((4-(3-(3-amino-6-(2- hydroxyphenyl)pyridazin-4-yl)-3,8- diazabicyclo[3.2.1]octan-8- yl)pyridin-2- yl)oxy)cyclobutoxy)piperidin-1- yl)ethoxy)isoxazol-5-yl)-3- methylbutanoyl)-4-hydroxy-N-(4-(4- methylthiazol-5- yl)benzyl)pyrrolidine-2-carboxamide [compound 146]”, where the note is “read-out: DC50”, the DC50 was less than 2.5 nM. In addition, for the setting “when tested at the top concentration of between 0.3 and 10 μM”, the “Dmax (%) (% degraded)” value is listed as “A (A > 75)”.
